Laboratory results published in publication PMC11892739, “Site-specific molecular glues for the 14-3-3/Tau pS214 protein–protein interaction via reversible covalent imine tethering” (RSC Medicinal Chemistry, 2025).

Target: T1, 14-3-3/Pin1 complex (Homo sapiens, UniProt P63104)
T1 construct: made in house; host or cells: NiCo21 (DE3) E. coli
Assay: FA peptide screen, 14-3-3ζ titration to client peptide and compound: Pin1
Format: binding
Settings: 250 μM compound
Procedure: Since the hub protein 14-3-3 binds to hundreds of phosphoprotein partners, selectivity of PPI stabilization is a major challenge. The interplay of chemical reactivity, and the topology and functionality of the composite binding pocket shaped by 14-3-3 and Tau potentially provide entries towards selective stabilization. […] Here, 14-3-3ζ was titrated to a constant concentration of client peptide (100 nM) and compound (250 μM) to determine the SF250μM values for the particular 14-3-3 PPI. A variety of 14-3-3 binding proteins was represented in this client panel whereby the size and hydrophobicity of the +1 amino acid were varied. […]
chromatography (HisTrap high performance cartridges, Cytiva). […]
0.1% (v/v) Tween20, 0.1% (w/v) BSA). […] Measurements were performed directly after plate preparation, using a Tecan SPARK plate reader at room temperature ( λex: 485±20 nm; λem: 535±25 nm; mirror: automatic; flashes: 30; settle time: 1 ms; gain: optimal; Z -position: calculated from well). […] All data were analyzed using GraphPad Prism (10.0.1) and fitted with a four -parameter logistic model (4PL) to determine binding affinities (dissociation constant, KD). […]
Fluorescence Anisotropy – peptide screen […]

T1 sequence (P63104 whole entry, other chains not shown): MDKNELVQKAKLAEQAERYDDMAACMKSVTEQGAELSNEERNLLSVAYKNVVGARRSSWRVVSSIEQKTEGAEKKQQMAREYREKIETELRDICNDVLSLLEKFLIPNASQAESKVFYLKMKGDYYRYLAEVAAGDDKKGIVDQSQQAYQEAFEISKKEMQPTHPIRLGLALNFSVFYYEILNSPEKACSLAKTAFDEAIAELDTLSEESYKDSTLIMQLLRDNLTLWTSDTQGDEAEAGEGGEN

SF250μM for 14-3-3/Pin1 PPI stabilization (100 nM Pin1 peptide, 14-3-3ζ titrated): 3.9
stabilization of 14-3-3/Pin1 peptide (in words) (100 nM peptide, +1 Trp): no significant stabilization
Compound: CCc1ccc(-c2nccn2-c2ccc(C=O)c(Br)c2)cc1 [Compound 18]
